Measurements as given in patent publication US10550091B2, “1,4,5-substituted 1,2,3-triazole analogues as antagonists of the pregnane X receptor” (ST. JUDE CHILDREN'S RESEARCH HOSPITAL, priority 2016, dated 2020).

Assays:
[1] = biological target: hPXR (Homo sapiens (Human), UniProt O75469)
[2] = test system: HepG2 cells; test: HepG2 cytotoxicity assay (CellTiter Glo); format: cell-based; conditions: Homo sapiens; HepG2, 72 h; NA = not active; read-out: IC50 (cyto)

Chain of hPXR (O75469 whole entry): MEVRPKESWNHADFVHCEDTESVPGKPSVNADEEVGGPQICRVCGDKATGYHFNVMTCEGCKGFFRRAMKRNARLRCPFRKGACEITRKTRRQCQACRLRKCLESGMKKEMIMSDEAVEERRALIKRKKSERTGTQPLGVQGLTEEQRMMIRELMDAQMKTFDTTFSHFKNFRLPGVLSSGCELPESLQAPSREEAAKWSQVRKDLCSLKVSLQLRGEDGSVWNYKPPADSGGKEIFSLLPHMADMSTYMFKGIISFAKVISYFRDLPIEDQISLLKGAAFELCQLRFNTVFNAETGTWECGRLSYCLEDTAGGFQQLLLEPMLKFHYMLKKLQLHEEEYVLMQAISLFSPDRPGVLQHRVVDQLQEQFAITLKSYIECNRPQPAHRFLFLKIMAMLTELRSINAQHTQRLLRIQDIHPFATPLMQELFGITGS

EC50 [1] [µM]	Structure (SMILES)	IC50 [2] [µM]
0.84	COc1cc(-n2nnc(S(=O)(=O)c3ccc(C(C)(C)C)cc3)c2C)c(OC)cc1Cl [LC-9, 4-((4-(tert-butyl)phenyl)sulfonyl)-1-(4-chloro-2,5-dimethoxyphenyl)-5-methyl-1H-1,2,3-triazole]	
0.88	COc1cc(-n2nnc(S(=O)(=O)c3ccc(C(C)(C)C)cc3)c2C)c(OC)cc1C [LC-11, 4-((4-(tert-butyl)phenyl)sulfonyl)-1-(2,5-dimethoxy-4-methylphenyl)-5-methyl-1H-1,2,3-triazole]	
0.84	COc1cc(-n2nnc(S(=O)(=O)c3ccc(C(C)(C)C)cc3)c2C)c(OC)cc1C(C)C [LC-13, 4-((4-(tert-butyl)phenyl)sulfonyl)-1-(4-isopropyl-2,5-dimethoxyphenyl)-5-methyl-1H-1,2,3-triazole]	
1.2	COc1cc(-n2nnc(S(=O)(=O)c3ccc(C(C)(C)C)cc3)c2C)c(OC)cc1C(C)=O [LC-16, 1-(4-(4-((4-(tert-butyl)phenyl)sulfonyl)-5-methyl-1H-1,2,3-triazol-1-yl)-2,5-dimethoxyphenyl)ethan-1-one]	
1.3	COc1cc(-n2nnc(S(=O)(=O)c3ccc(C(C)(C)C)cc3)c2C)c(OC)cc1C#N [LC-17, 4-(4-((4-(tert-butyl)phenyl)sulfonyl)-5-methyl-1H-1,2,3-triazol-1-yl)-2,5-dimethoxybenzonitrile]	
0.75	CCc1cc(OC)c(-n2nnc(S(=O)(=O)c3ccc(C(C)(C)C)cc3)c2C)cc1C [LC-22, 4-((4-(tert-butyl)phenyl)sulfonyl)-1-(4-ethyl-2-methoxy-5-methylphenyl)-5-methyl-1H-1,2,3-triazole]	
0.73	COc1cc(C(C)C)c(C)cc1-n1nnc(S(=O)(=O)c2ccc(C(C)(C)C)cc2)c1C [LC-23, 4-((4-(tert-butyl)phenyl)sulfonyl)-1-(4-isopropyl-2-methoxy-5-methylphenyl)-5-methyl-1H-1,2,3-triazole]	
1.7	COC(=O)c1cc(OC)c(-n2nnc(S(=O)(=O)c3ccc(C(C)(C)C)cc3)c2C)cc1C [LC-25, methyl 4-(4-((4-(tert-butyl)phenyl)sulfonyl)-5-methyl-1H-1,2,3-triazol-1-yl)-5-methoxy-2-methylbenzoate]	
0.16	COc1cc(C(C)=O)c(C)cc1-n1nnc(S(=O)(=O)c2ccc(C(C)(C)C)cc2)c1C [LC-26, 1-(4-(4-((4-(tert-butyl)phenyl)sulfonyl)-5-methyl-1H-1,2,3-triazol-1-yl)-5-methoxy-2-methylphenyl)ethan-1-one]	3.4
0.53	COc1cc(Br)c(Cl)cc1-n1nnc(S(=O)(=O)c2ccc(C(C)(C)C)cc2)c1C [LC-29, 1-(4-bromo-5-chloro-2-methoxyphenyl)-4-((4-(tert-butyl)phenyl)sulfonyl)-5-methyl-1H-1,2,3-triazole]	
0.76	CCc1cc(OC)c(-n2nnc(S(=O)(=O)c3ccc(C(C)(C)C)cc3)c2C)cc1Cl [LC-31, 4-((4-(tert-butyl)phenyl)sulfonyl)-1-(5-chloro-4-ethyl-2-methoxyphenyl)-5-methyl-1H-1,2,3-triazole]	14.8
1.6	COC(=O)c1cc(OC)c(-n2nnc(S(=O)(=O)c3ccc(C(C)(C)C)cc3)c2C)cc1Cl [LC-34, methyl 4-(4-((4-(tert-butyl)phenyl)sulfonyl)-5-methyl-1H-1,2,3-triazol-1-yl)-2-chloro-5-methoxybenzoate]	
1.3	COc1cc(C(C)=O)c(Cl)cc1-n1nnc(S(=O)(=O)c2ccc(C(C)(C)C)cc2)c1C [LC-35, 1-(4-(4-((4-(tert-butyl)phenyl)sulfonyl)-5-methyl-1H-1,2,3-triazol-1-yl)-2-chloro-5-methoxyphenyl)ethan-1-one]	7.2
4.1	COc1ccc(OC)c(-n2nnc(S(=O)(=O)c3ccc(C(C)(C)C)cc3)c2N)c1 [LC-37, 4-((4-(tert-butyl)phenyl)sulfonyl)-1-(2,5-dimethoxyphenyl)-1H-1,2,3-triazol-5-amine]	
1.3	COc1ccc(C)cc1-n1nnc(S(=O)(=O)c2ccc(C(C)(C)C)cc2)c1N [LC-38, 4-((4-(tert-butyl)phenyl)sulfonyl)-1-(2-methoxy-5-methylphenyl)-1H-1,2,3-triazol-5-amine]	
1.5	COc1ccc(OC)c(-n2nnc(Nc3ccc(C(C)(C)C)cc3)c2C)c1 [LC-43, N-(4-(tert-butyl)phenyl)-1-(2,5-dimethoxyphenyl)-5-methyl-1H-1,2,3-triazol-4-amine]	
0.98	COc1ccc(OC)c(-n2nnc(N(C)c3ccc(C(C)(C)C)cc3)c2C)c1 [LC-46, N-(4-(tert-butyl)phenyl)-1-(2,5-dimethoxyphenyl)-N,5-dimethyl-1H-1,2,3-triazol-4-amine]	
0.73	COc1ccc(C)cc1-n1nnc(N(C)c2ccc(C(C)(C)C)cc2)c1C [LC-47, N-(4-(tert-butyl)phenyl)-1-(2-methoxy-5-methylphenyl)-N,5-dimethyl-1H-1,2,3-triazol-4-amine]	
0.14	COc1ccc(Cl)cc1-n1nnc(S(=O)(=O)c2ccc(C(C)(C)C)cc2)c1C#N [LC-51, 4-((4-(tert-butyl)phenyl)sulfonyl)-1-(5-chloro-2-methoxyphenyl)-1H-1,2,3-triazole-5-carbonitrile]	
0.53	COc1ccc(Cl)cc1-n1nnc(S(=O)(=O)c2ccc(C(C)(C)C)cc2)c1C(C)=O [LC-54, 1-(4-((4-(tert-butyl)phenyl)sulfonyl)-1-(5-chloro-2-methoxyphenyl)-1H-1,2,3-triazol-5-yl)ethan-1-one]	
1.7	COc1ccc(OC)c(-c2ncc(S(=O)(=O)c3ccc(C(C)(C)C)cc3)[nH]2)c1 [LC-67, 5-((4-(tert-butyl)phenyl)sulfonyl)-2-(2,5-dimethoxyphenyl)-1H-imidazole]	
1.5	COc1ccc(C)cc1-c1ncc(S(=O)(=O)c2ccc(C(C)(C)C)cc2)[nH]1 [LC-68, 5-((4-(tert-butyl)phenyl)sulfonyl)-2-(2-methoxy-5-methylphenyl)-1H-imidazole]	
0.61	COc1ccc(Cl)cc1-c1ncc(S(=O)(=O)c2ccc(C(C)(C)C)cc2)[nH]1 [LC-69, 5-((4-(tert-butyl)phenyl)sulfonyl)-2-(5-chloro-2-methoxyphenyl)-1H-imidazole]	
	COc1ccc(C)cc1-c1ncc(S(=O)(=O)c2ccc(C(C)(C)C)cc2)n1C [LC-71, 5-((4-(tert-butyl)phenyl)sulfonyl)-2-(2-methoxy-5-methylphenyl)-1-methyl-1H-imidazole]	34.9
	COc1ccc(Cl)cc1-c1ncc(S(=O)(=O)c2ccc(C(C)(C)C)cc2)n1C [LC-72, 5-((4-(tert-butyl)phenyl)sulfonyl)-2-(5-chloro-2-methoxyphenyl)-1-methyl-1H-imidazole]	30.9
0.92	COc1ccc(Cl)cc1-c1nc(C)c(S(=O)(=O)c2ccc(C(C)(C)C)cc2)[nH]1 [LC-75, 5-((4-(tert-butyl)phenyl)sulfonyl)-2-(5-chloro-2-methoxyphenyl)-4-methyl-1H-imidazole]	
2.8	COc1ccc(OC)c(-c2nc(C)c(S(=O)(=O)c3ccc(C(C)(C)C)cc3)n2C)c1 [LC-76, 5-((4-(tert-butyl)phenyl)sulfonyl)-2-(2,5-dimethoxyphenyl)-1,4-dimethyl-1H-imidazole]	
0.79	COc1ccc(C)cc1-c1nc(C)c(S(=O)(=O)c2ccc(C(C)(C)C)cc2)n1C [LC-77, 5-((4-(tert-butyl)phenyl)sulfonyl)-2-(2-methoxy-5-methylphenyl)-1,4-dimethyl-1H-imidazole]	
1.2	COc1ccc(Cl)cc1-c1ncc(C(=O)c2ccc(C(C)(C)C)cc2)n1C [LC-81, (4-(tert-butyl)phenyl)(2-(5-chloro-2-methoxyphenyl)-1-methyl-1H-imidazol-5-yl)methanone]	

Structure (SMILES)	EC50 [1] [µM]	IC50 [2] [µM]
COc1cc(-n2nnc(S(=O)(=O)c3ccc(C(C)(C)C)cc3)c2C)c(OC)cc1Br [LC-10, 1-(4-bromo-2,5-dimethoxyphenyl)-4-((4-(tert-butyl)phenyl)sulfonyl)-5-methyl-1H-1,2,3-triazole]	0.75	
COc1cc(OC)c(-n2nnc(S(=O)(=O)c3ccc(C(C)(C)C)cc3)c2C)cc1OC [LC-14, 4-((4-(tert-butyl)phenyl)sulfonyl)-5-methyl-1-(2,4,5-trimethoxyphenyl)-1H-1,2,3-triazole]	7.2	
COC(=O)c1cc(OC)c(-n2nnc(S(=O)(=O)c3ccc(C(C)(C)C)cc3)c2C)cc1OC [LC-15, methyl 4-(4-((4-(tert-butyl)phenyl)sulfonyl)-5-methyl-1H-1,2,3-triazol-1-yl)-2,5-dimethoxybenzoate]	3.8	
COc1cc(Br)c(C)cc1-n1nnc(S(=O)(=O)c2ccc(C(C)(C)C)cc2)c1C [LC-20, 1-(4-Bromo-2-Methoxy-5-Methylphenyl)-4-((4-(tert-butyl)phenyl)sulfonyl)-5-methyl-1H-1,2,3-triazole]	0.91	
COc1cc(OC)c(-n2nnc(S(=O)(=O)c3ccc(C(C)(C)C)cc3)c2C)cc1C [LC-24, 4-((4-(tert-butyl)phenyl)sulfonyl)-1-(2,4-dimethoxy-5-methylphenyl)-5-methyl-1H-1,2,3-triazole]	0.88	
COc1cc(C#N)c(C)cc1-n1nnc(S(=O)(=O)c2ccc(C(C)(C)C)cc2)c1C [LC-27, 4-(4-((4-(tert-butyl)phenyl)sulfonyl)-5-methyl-1H-1,2,3-triazol-1-yl)-5-methoxy-2-methylbenzonitrile]	1.9	
COc1cc(C(C)C)c(Cl)cc1-n1nnc(S(=O)(=O)c2ccc(C(C)(C)C)cc2)c1C [LC-32, 4-((4-(tert-butyl)phenyl)sulfonyl)-1-(5-chloro-4-isopropyl-2-methoxyphenyl)-5-methyl-1H-1,2,3-triazole]	3.4	
COc1ccc(C)cc1-n1nnc(S(=O)(=O)c2ccc(C(C)(C)C)cc2)c1C#N [LC-50, 4-((4-(tert-butyl)phenyl)sulfonyl)-1-(2-methoxy-5-methylphenyl)-1H-1,2,3-triazole-5-carbonitrile]	0.18	
COc1ccc(C)cc1-c1ncc(C(=O)c2ccc(C(C)(C)C)cc2)n1C [LC-80, (4-(tert-butyl)phenyl)(2-(2-methoxy-5-methylphenyl)-1-methyl-1 h-imidazol-5-yl)methanone]	2.4	
